{
  "source": "patent US12357644B2",
  "about": "“Acetyl salicylic acid composition for intravenous administration, its storage, production and use” (HYLORIS DEVELOPMENTS SA, priority 2022, dated 2025)",
  "type_in_all_cases": "physicochemical",
  "key": {"[1]": {"test": "Assay and purity by HPLC on non-irradiated and gamma-irradiated ASA powder", "conditions": "after gamma irradiation", "protocol": "The packaged ASA was end-sterilized by 25 or 55 kGy using a Cobalt60 irradiation source. Inside the installation, samples are placed on a turn table which is turned a quarter to expose each sample from each side at equal amounts of irradiation. For each 1 kGy, the sample is irradiated for 10 min.\nAfter gamma-irradiation, the samples were again analysed for sterility according to Ph. Eur. 2.6.1., which is harmonized with USP 71. Potential degradation was monitored by determining assay and purity by HPLC.\nSalicylic acid levels were less than 0.05%."}, "[2]": {"test": "Solution pH before and after addition of ASA to medium", "protocol": "(§1) Prior to spray drying experiments, the solution pH of different solvents and the saturation solubility of ASA in different solvents was screened. The acidified mediums were prepared as follows:\n(§2) 8.5 ml of hydrochloric acid (about 35% v/v) was transferred into 900 ml of water and diluted to 1000 ml with water. 10.0 ml of this solution was diluted to 1000 ml with water. The pH of the solution was noted.\n(§3) 8.5 ml of hydrochloric acid (about 35% v/v) was transferred into 900 mL 96% ethanol and diluted to 1000 ml with water. 10.0 ml of this solution was diluted to 1000 ml with 96% ethanol. The pH of the solution was noted.\n(§4) 8.5 ml of hydrochloric acid (about 35% v/v) was transferred into 900 mL Tertiary butyl alcohol and diluted to 1000 ml with Tertiary butyl alcohol. 10.0 ml of this solution was diluted to 1000 ml with 96% Tertiary butyl alcohol. The pH of the solution was noted.\n(§5) 8.5 ml of hydrochloric acid (about 35% v/v) was transferred into 900 ml water and diluted to 1000 ml with water. 10.0 ml of this solution was diluted to 1000 ml with water. […] The pH of the solution was noted.\n(§6) ASA has more solubility in non-aqueous media compared to aqueous media and ASA dissolves better in ethanol compared to tertiary butyl alcohol however it also has higher salicylic acid content (Tables 6 and 7). Once it is acidified the salicylic acid levels are lowered."}, "[3]": {"test": "Saturated solubility of ASA after 1 hour shaking in a medium selection", "conditions": "for solubility thermodynamic at 1 h: thermodynamic from solid, read-out: Individual concentration at saturation (Cs), Aspirin (A)", "protocol": "as §1, §2, §3, §4, §5, §6"}},
  "note": "“And” between values parts separate entries of the source, which are not always exact repeats. Equal entries are not always repeated. Where two headings read alike, the source gives them in different places.",
  "data": [
    {"smiles": "CC(=O)Oc1ccccc1C(=O)O", "note": "[ASA, Acetyl salicylic acid]", "values": [
      {"measurement": "Salicylic acid levels", "setting": "[1]", "result": "less than 0.05%"},
      {"measurement": "impurities identified", "setting": "[1]", "result": "no impurities were identified"},
      {"measurement": "pH 48 hours after addition of ASA", "setting": "[2]; 96% Ethanol, no prior pH adjustment (pH 7.06 before)", "result": 3.09},
      {"measurement": "pH 48 hours after addition of ASA", "setting": "[2]; Acidified 96% ethanol (pH 2.30 before)", "result": 2.24},
      {"measurement": "pH 48 hours after addition of ASA", "setting": "[2]; Acidified tert-butyl alcohol (pH 2.01 before)", "result": 1.93},
      {"measurement": "pH 48 hours after addition of ASA", "setting": "[2]; Acidified water (0.001N HCl) (pH 2.47 before)", "result": 2.37},
      {"measurement": "pH 48 hours after addition of ASA", "setting": "[2]; Acidified water + 60 g/L mannitol (pH 2.50 before)", "result": 2.36},
      {"measurement": "pH 48 hours after addition of ASA", "setting": "[2]; Milli-Q Water, no prior pH adjustment (pH 5.41 before)", "result": 2.62},
      {"measurement": "pH 48 hours after addition of ASA", "setting": "[2]; Tert-butyl alcohol, no prior pH adjustment (pH 4.89 before)", "result": 3.40},
      {"measurement": "pH 48 hours after addition of ASA", "setting": "[2]; Water + 60 g/L mannitol, no prior pH adjustment (pH 6.03 before)", "result": 2.61},
      {"measurement": "solubility thermodynamic at 1 h", "setting": "[3]; 60 g/L mannitol solution, saline or isotonic, 60 g/L mannitol, without pH adjustment", "result": 3090, "unit": "µg/mL"},
      {"measurement": "Individual concentration at saturation (Cs), Aspirin (A)", "setting": "[3]; 60 g/L mannitol, without pH adjustment", "result": "2.868 mg/mL and 2.484 mg/mL"},
      {"measurement": "Cs (mean)", "setting": "[3]; Acidified 60 g/L mannitol", "result": 1.787, "unit": "mg/mL"},
      {"measurement": "Cs (mean)", "setting": "[3]; Acidified ethanol", "result": 142.678, "unit": "mg/mL"},
      {"measurement": "Individual concentration at saturation (Cs), Aspirin (A)", "setting": "[3]; Acidified ethanol", "result": "143.526 mg/mL and 142.299 mg/mL and 141.593 mg/mL"},
      {"measurement": "Individual concentration at saturation (Cs), Aspirin (A)", "setting": "[3]; Acidified tert-butyl alcohol", "result": "48.73 mg/mL and 48.156 mg/mL and 48.453 mg/mL"},
      {"measurement": "Individual concentration at saturation (Cs), Aspirin (A)", "setting": "[3]; Acidified water", "result": "1.924 mg/mL and 1.912 mg/mL"},
      {"measurement": "Individual concentration at saturation (Cs), Aspirin (A)", "setting": "[3]; Ethanol, without pH adjustment", "result": "158.430 mg/mL and 163.027 mg/mL and 160.432 mg/mL"},
      {"measurement": "Individual concentration at saturation (Cs), Aspirin (A)", "setting": "[3]; Tert-butyl alcohol, without pH adjustment", "result": "22.768 mg/mL and 23.150 mg/mL and 22.889 mg/mL"},
      {"measurement": "Individual concentration at saturation (Cs), Aspirin (A)", "setting": "[3]; Water, without pH adjustment", "result": "3.429 mg/mL and 3.423 mg/mL"},
      {"measurement": "solubility thermodynamic at 1 h", "setting": "[3]; acidified 60 g/L mannitol solution, saline or isotonic, Acidified 60 g/L mannitol", "result": 1780, "unit": "µg/mL"},
      {"measurement": "solubility thermodynamic at 1 h", "setting": "[3]; acidified water, aqueous buffer, Acidified water", "result": 1890, "unit": "µg/mL"},
      {"measurement": "solubility thermodynamic at 1 h", "setting": "[3]; water, Water, without pH adjustment", "result": 3090, "unit": "µg/mL"}
    ]}
  ]
}
